# In patent US11339128B2 (Firmenich Incorporated, priority 2014, dated 2022):
# Target: T1, T1R2/T1R3 taste receptor (Homo sapiens, UniProt Q7RTX0+Q8TE23)
# T1 sequence (Q8TE23 20-839): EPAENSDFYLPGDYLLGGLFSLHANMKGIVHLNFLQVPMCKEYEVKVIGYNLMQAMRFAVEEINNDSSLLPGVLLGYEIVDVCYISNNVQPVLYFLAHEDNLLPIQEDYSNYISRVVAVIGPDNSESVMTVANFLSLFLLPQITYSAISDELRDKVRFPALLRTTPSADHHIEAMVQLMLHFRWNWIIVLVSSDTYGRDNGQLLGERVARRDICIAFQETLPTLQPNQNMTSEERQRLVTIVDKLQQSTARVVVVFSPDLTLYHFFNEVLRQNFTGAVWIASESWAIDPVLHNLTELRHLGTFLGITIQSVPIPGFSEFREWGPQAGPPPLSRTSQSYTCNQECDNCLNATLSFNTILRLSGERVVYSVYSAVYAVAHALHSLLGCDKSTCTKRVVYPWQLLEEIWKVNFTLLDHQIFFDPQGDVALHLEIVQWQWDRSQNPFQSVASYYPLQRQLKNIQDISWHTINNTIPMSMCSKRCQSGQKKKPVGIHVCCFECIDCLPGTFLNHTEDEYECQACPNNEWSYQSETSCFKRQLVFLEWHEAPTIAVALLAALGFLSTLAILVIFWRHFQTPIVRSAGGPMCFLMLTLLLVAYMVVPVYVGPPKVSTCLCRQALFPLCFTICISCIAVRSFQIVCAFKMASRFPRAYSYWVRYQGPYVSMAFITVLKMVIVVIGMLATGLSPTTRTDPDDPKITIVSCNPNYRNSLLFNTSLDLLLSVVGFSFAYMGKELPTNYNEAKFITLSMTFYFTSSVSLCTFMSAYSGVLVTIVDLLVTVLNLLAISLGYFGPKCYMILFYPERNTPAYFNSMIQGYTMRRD
# T1 sequence (Q7RTX0 21-852): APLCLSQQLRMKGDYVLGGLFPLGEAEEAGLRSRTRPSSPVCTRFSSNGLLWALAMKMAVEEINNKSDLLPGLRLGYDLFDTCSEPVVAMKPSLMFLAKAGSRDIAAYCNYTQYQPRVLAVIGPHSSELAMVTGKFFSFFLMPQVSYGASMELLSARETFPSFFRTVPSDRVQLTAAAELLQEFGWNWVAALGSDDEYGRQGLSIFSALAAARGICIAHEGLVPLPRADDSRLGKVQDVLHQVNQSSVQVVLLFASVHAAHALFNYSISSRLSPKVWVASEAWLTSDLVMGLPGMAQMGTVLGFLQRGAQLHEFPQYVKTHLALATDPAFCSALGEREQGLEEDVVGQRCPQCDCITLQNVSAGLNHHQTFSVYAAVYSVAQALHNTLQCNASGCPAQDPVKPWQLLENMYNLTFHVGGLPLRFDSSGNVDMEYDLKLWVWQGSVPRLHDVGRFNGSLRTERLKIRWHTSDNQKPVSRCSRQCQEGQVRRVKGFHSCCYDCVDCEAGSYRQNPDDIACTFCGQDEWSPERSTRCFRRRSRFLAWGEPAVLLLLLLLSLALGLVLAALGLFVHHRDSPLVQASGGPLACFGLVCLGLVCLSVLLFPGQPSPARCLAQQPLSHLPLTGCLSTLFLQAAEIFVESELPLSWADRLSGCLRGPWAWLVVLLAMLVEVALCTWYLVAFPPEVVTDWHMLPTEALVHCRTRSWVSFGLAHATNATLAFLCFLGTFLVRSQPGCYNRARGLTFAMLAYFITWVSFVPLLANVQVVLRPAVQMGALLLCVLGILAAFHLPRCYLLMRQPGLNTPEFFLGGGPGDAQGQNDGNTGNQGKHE
# Assay: Receptor-based assay: sweetener EC50 enhancement ratio with and without test compound
# Format: cell-based
# Settings: for Sucrose Enhancement EC50 Ratio: sweetener sucrose; for Sucralose Enhancement EC50 Ratio: sweetener sucralose; for Fructose Enhancement EC50 Ratio: sweetener fructose
# Experimental: Potencies (EC50 values) for the sweeteners sucrose, sucralose, and fructose were measured against the T1R2/T1R3 taste receptor. EC50 was determined using the sweetener alone and in the presence of 1 μM, 3 μM, 10 μM, or 50 μM of test compound. EC50 ratios were calculated by the ratio of potency with and without the test compound. An “A” value indicates an enhancement ratio of greater than 1 and less than 10. A “B” value indicates an enhancement ratio from 10 to 20. A “C” value indicates an enhancement ratio greater than 20.
Sucrose Enhancement EC50 Ratio (10 μM test compound),Compound,Sucrose Enhancement EC50 Ratio (1 μM test compound),Sucralose Enhancement EC50 Ratio (3 μM test compound),Sucrose Enhancement EC50 Ratio (3 μM test compound),Fructose Enhancement EC50 Ratio (10 μM test compound),Sucralose Enhancement EC50 Ratio (10 μM test compound),Fructose Enhancement EC50 Ratio (50 μM test compound)
,COCCOCC(=O)N[C@H]1CC[C@H](Oc2cccc3nc(C)c(C(=O)O)c(N)c23)CC1 [Compound 336],A (an enhancement ratio of greater than 1 and less than 10),B (an enhancement ratio from 10 to 20),C (an enhancement ratio greater than 20),,,
,Cc1nc2cccc(O[C@H]3CC[C@H](NC(=O)COCC4CCCCC4)CC3)c2c(N)c1C(=O)O [Compound 337],A (an enhancement ratio of greater than 1 and less than 10),,C (an enhancement ratio greater than 20),,,
C (an enhancement ratio greater than 20),COCC(=O)NC[C@H]1CC[C@H](Oc2cccc3nc(C)c(C(=O)O)c(N)c23)CC1 [Compound 601],A (an enhancement ratio of greater than 1 and less than 10),,C (an enhancement ratio greater than 20),A (an enhancement ratio of greater than 1 and less than 10),,
,Cc1nc2cccc(O[C@H]3CC[C@H](NC(=O)COc4ccccc4)CC3)c2c(N)c1C(=O)O [Compound 327],A (an enhancement ratio of greater than 1 and less than 10),,,,,
,Cc1nc2cccc(O[C@H]3CC[C@H](NC(=O)COCCOC(C)C)CC3)c2c(N)c1C(=O)O [Compound 329],A (an enhancement ratio of greater than 1 and less than 10),A (an enhancement ratio of greater than 1 and less than 10),B (an enhancement ratio from 10 to 20),,,
B (an enhancement ratio from 10 to 20),Cc1nc2cccc(O[C@H]3CC[C@H](O)CC3)c2c(N)c1C(=O)O [Compound 107],A (an enhancement ratio of greater than 1 and less than 10),,A (an enhancement ratio of greater than 1 and less than 10),,,
,Cc1nc2cccc(O[C@H]3CC[C@H](C(C)(C)C)CC3)c2c(N)c1C(=O)O [Compound 104],A (an enhancement ratio of greater than 1 and less than 10),,C (an enhancement ratio greater than 20),,,
B (an enhancement ratio from 10 to 20),Cc1nc2cccc(O[C@H]3CC[C@H](NC(=O)C4CCC4)CC3)c2c(N)c1C(=O)O [Compound 320],A (an enhancement ratio of greater than 1 and less than 10),,B (an enhancement ratio from 10 to 20),,B (an enhancement ratio from 10 to 20),
B (an enhancement ratio from 10 to 20),Cc1nc2cccc(O[C@H]3CC[C@H](NC(=O)CO[C@H]4CC[C@H](C)CC4)CC3)c2c(N)c1C(=O)O [Compound 312],A (an enhancement ratio of greater than 1 and less than 10),,A (an enhancement ratio of greater than 1 and less than 10),,,
B (an enhancement ratio from 10 to 20),CCCc1cnc(N[C@H]2CC[C@H](Oc3cccc4nc(C)c(C(=O)O)c(N)c34)CC2)nc1 [Compound 706],A (an enhancement ratio of greater than 1 and less than 10),A (an enhancement ratio of greater than 1 and less than 10),A (an enhancement ratio of greater than 1 and less than 10),A (an enhancement ratio of greater than 1 and less than 10),B (an enhancement ratio from 10 to 20),A (an enhancement ratio of greater than 1 and less than 10)
C (an enhancement ratio greater than 20),Cc1nc2cccc(O[C@H]3CC[C@H](NC(=O)CO[C@@H]4C[C@H](C)CC[C@H]4C(C)C)CC3)c2c(N)c1C(=O)O [Compound 328],A (an enhancement ratio of greater than 1 and less than 10),,A (an enhancement ratio of greater than 1 and less than 10),,,
,Cc1nc2cccc(O[C@H]3CC[C@H](NC(=O)COCC4CCC4)CC3)c2c(N)c1C(=O)O [Compound 326],B (an enhancement ratio from 10 to 20),,,,,
,Cc1nc2cccc(O[C@H]3CC[C@H](NC(=O)CN4CCCC4)CC3)c2c(N)c1C(=O)O [Compound 323],A (an enhancement ratio of greater than 1 and less than 10),,A (an enhancement ratio of greater than 1 and less than 10),,,
,CCOCCOCC(=O)N[C@H]1CC[C@H](Oc2cccc3nc(C)c(C(=O)O)c(N)c23)CC1 [Compound 332],A (an enhancement ratio of greater than 1 and less than 10),,B (an enhancement ratio from 10 to 20),,,

Compound,Sucrose Enhancement EC50 Ratio (10 μM test compound),Sucrose Enhancement EC50 Ratio (1 μM test compound),Sucralose Enhancement EC50 Ratio (3 μM test compound),Sucrose Enhancement EC50 Ratio (3 μM test compound),Fructose Enhancement EC50 Ratio (10 μM test compound),Sucralose Enhancement EC50 Ratio (10 μM test compound),Fructose Enhancement EC50 Ratio (50 μM test compound)
COCC(=O)N[C@H]1CC[C@H](Oc2cccc3nc(C)c(C(=O)O)c(N)c23)CC1 [Compound 304],A (an enhancement ratio of greater than 1 and less than 10),A (an enhancement ratio of greater than 1 and less than 10),,B (an enhancement ratio from 10 to 20),,,
CCCc1ccnc(N[C@H]2CC[C@H](Oc3cccc4nc(C)c(C(=O)O)c(N)c34)CC2)n1 [Compound 709],A (an enhancement ratio of greater than 1 and less than 10),A (an enhancement ratio of greater than 1 and less than 10),A (an enhancement ratio of greater than 1 and less than 10),A (an enhancement ratio of greater than 1 and less than 10),,A (an enhancement ratio of greater than 1 and less than 10),
Cc1cnn(CC(=O)N[C@H]2CC[C@H](Oc3cccc4nc(C)c(C(=O)O)c(N)c34)CC2)c1 [Compound 330],A (an enhancement ratio of greater than 1 and less than 10),A (an enhancement ratio of greater than 1 and less than 10),,A (an enhancement ratio of greater than 1 and less than 10),,,
CCc1nc2cccc(OC3CCCCC3)c2c(N)c1C(=O)O [Compound 200],A (an enhancement ratio of greater than 1 and less than 10),A (an enhancement ratio of greater than 1 and less than 10),,A (an enhancement ratio of greater than 1 and less than 10),,,
"CCNCC(=O)N[C@H]1CC[C@H](Oc2cccc3nc(C)c(C(=O)O)c(N)c23)CC1.Cl [Compound 400, 4-Amino-5-((trans-4-(2-(ethylamino)acetamido)cyclohexyl)oxy)-2-methyl quinolone-3-carboxylic acid (HCl)]",A (an enhancement ratio of greater than 1 and less than 10),A (an enhancement ratio of greater than 1 and less than 10),,A (an enhancement ratio of greater than 1 and less than 10),A (an enhancement ratio of greater than 1 and less than 10),A (an enhancement ratio of greater than 1 and less than 10),A (an enhancement ratio of greater than 1 and less than 10)
